# Results published in article PMC8703412 (Pharmaceuticals, 2021).
# Where two headings read alike, the source gives them in different places.
# Tests used:
# [1] = tested on: Mycobacterium tuberculosis strain 331/88 (i.e., H37Rv); assay: MIC micromethod in Šula's medium, drug-susceptible Mtb.; format: cell-based; conditions: Mycobacterium tuberculosis, H37RV
# [2] = tested on: Mycobacterium avium 330/88; assay: MIC micromethod in Šula's medium, M. avium; format: cell-based; conditions: Mycobacterium avium
# [3] = tested on: Mycobacterium kansasii 6509/96 (clinical isolate); assay: MIC micromethod in Šula's medium, M. kansasii; format: cell-based; conditions: Mycobacterium kansasii
# [4] = Cytotoxicity, CellTiter 96 (MTS) assay; conditions: human, Cytotoxicity for HepG2 cells, IC50, 24 h incubation, 1–1000 µM
# [5] = 336 h, 14 d incubation, precursors, Table 2, read-out: MIC Mtb. 331/88 14 d
# [6] = 504 h, 21 d incubation, precursors, Table 2, read-out: MIC Mtb. 331/88 21 d
# [7] = 330/88, 336 h, 14 d incubation, precursors, Table 2, read-out: MIC M. avium 330/88 14 d
# [8] = 330/88, 504 h, 21 d incubation, precursors, Table 2, read-out: MIC M. avium 330/88 21 d
# [9] = 336 h, 14 d incubation, precursors, Table 2, read-out: MIC M. kansasii 6509/96 14 d
# [10] = 504 h, 21 d incubation, precursors, Table 2, read-out: MIC M. kansasii 6509/96 21 d
# [11] = 336 h, 14 d incubation, esters, Table 1, read-out: MIC Mtb. 331/88 14 d
# [12] = 504 h, 21 d incubation, esters, Table 1, read-out: MIC Mtb. 331/88 21 d
# [13] = 330/88, 336 h, 14 d incubation, Table 1, read-out: MIC M. avium 330/88 14 d
# [14] = 330/88, 504 h, 21 d incubation, Table 1, read-out: MIC M. avium 330/88 21 d
# [15] = 168 h, 7 d incubation, Table 1, read-out: MIC M. kansasii 6509/96 7 d
# [16] = 336 h, 14 d incubation, Table 1, read-out: MIC M. kansasii 6509/96 14 d
# [17] = 504 h, 21 d incubation, Table 1, read-out: MIC M. kansasii 6509/96 21 d
# [18] = 504 h, text summary over 7, 14 and 21 d, read-out: MIC for M. kansasii 6509/96
Structure (SMILES),"MIC [1, 5] [µM]","MIC [1, 6] [µM]","MIC [2, 7] [µM]","MIC [2, 8] [µM]","MIC ([3]; 168 h, 7 d incubation, precursors, Table 2, read-out: MIC M. kansasii 6509/96 7 d) [µM]","MIC [3, 9] [µM]","MIC [3, 10] [µM]","MIC ([3]; 168 h, read-out: MIC M. kansasii 6509/96 7 d) [µM]",IC50 at 24 h [4] [µM],"MIC [1, 11] [µM]","MIC [1, 12] [µM]","MIC [2, 13] [µM]","MIC [2, 14] [µM]",melting point [°C],"MIC [3, 15] [µM]","MIC [3, 16] [µM]","MIC [3, 17] [µM]","MIC [3, 18] [µM]","MIC ([1]; 504 h, 14 and 21 d, read-out: MIC for Mtb.) [µM]"
"Oc1cccc2ccccc12 [1-naphthol, reference compound]",250,500,500,500,125,250,500,–,–,–,–,–,–,–,–,–,–,–,–
"Oc1ccc2ccccc2c1 [2-naphthol, reference compound]",500,500,1000,1000,–,500,500,250,–,–,–,–,–,–,–,–,–,–,–
"COC(=O)/C(C)=N/NC(=O)c1ccncc1 [3a, Methyl (E)-2-(2-isonicotinoylhydrazineylidene)propanoate]",–,–,–,–,–,–,–,–,> 1000,0.25,0.25,500,1000,122 to 124.8,2,4,8,–,–
"C/C(=N\NC(=O)c1ccncc1)C(=O)Oc1ccccc1 [3b, Phenyl (E)-2-(2-isonicotinoylhydrazineylidene)propanoate]",–,–,–,–,–,–,–,–,> 1000,0.125,0.25,> 250,> 250,186 to 189,8,8,8,–,–
"C/C(=N\NC(=O)c1ccncc1)C(=O)Oc1ccc(C)cc1 [3c, p-Tolyl (E)-2-(2-isonicotinoylhydrazineylidene)propanoate]",–,–,–,–,–,–,–,–,> 1000,≤ 0.25,0.5,> 250,> 250,168 to 170,8,8,8,–,–
"COc1ccc(OC(=O)/C(C)=N/NC(=O)c2ccncc2)cc1 [3d, 4-Methoxyphenyl (E)-2-(2-isonicotinoylhydrazineylidene)propanoate]",–,–,–,–,–,–,–,–,> 1000,0.25,0.25,500,1000,169 to 172,4,8,8,–,–
"C/C(=N\NC(=O)c1ccncc1)C(=O)Oc1ccc(F)cc1 [3f, 4-Fluorophenyl (E)-2-(2-isonicotinoylhydrazineylidene)propanoate]",–,–,–,–,–,–,–,–,> 1000,0.25,0.5,500,500,174.1 to 177.2,2,4,4,–,–
"C/C(=N\NC(=O)c1ccncc1)C(=O)Oc1ccc(Cl)cc1 [3g, 4-Chlorophenyl (E)-2-(2-isonicotinoylhydrazineylidene)propanoate]",–,–,–,–,–,–,–,–,> 1000,≤ 0.125,≤ 0.125,500,1000,184 to 186.1,4,8,16,–,–
"C/C(=N\NC(=O)c1ccncc1)C(=O)Oc1ccc(Br)cc1 [3h, 4-Bromophenyl (E)-2-(2-isonicotinoylhydrazineylidene)propanoate]",–,–,–,–,–,–,–,–,> 1000,≤ 0.125,0.25,250,500,190 to 192,8,8,16,8 to 16,–
"C/C(=N\NC(=O)c1ccncc1)C(=O)OCc1ccncc1 [3n, Pyridin-4-ylmethyl (E)-2-(2-isonicotinoylhydrazineylidene)propanoate]",–,–,–,–,–,–,–,–,> 1000,0.5,1,≥ 1000,≥ 1000,126 to 128,8,16,16,8 to 16,0.5 to 1
"CC(=O)Nc1ccc(OC(=O)C(C)=NNC(=O)c2ccncc2)cc1 [3p, 4-Acetamidophenyl 2-(2-isonicotinoylhydrazineylidene)propanoate]",–,–,–,–,–,–,–,–,> 1000,0.25,0.5,1000,1000,–,8,16,16,8 to 16,–
